The target of this test is T1, GHRH receptor (human pituitary membrane homogenates) (Homo sapiens, UniProt Q02643).
T1 sequence (Q02643 23-423): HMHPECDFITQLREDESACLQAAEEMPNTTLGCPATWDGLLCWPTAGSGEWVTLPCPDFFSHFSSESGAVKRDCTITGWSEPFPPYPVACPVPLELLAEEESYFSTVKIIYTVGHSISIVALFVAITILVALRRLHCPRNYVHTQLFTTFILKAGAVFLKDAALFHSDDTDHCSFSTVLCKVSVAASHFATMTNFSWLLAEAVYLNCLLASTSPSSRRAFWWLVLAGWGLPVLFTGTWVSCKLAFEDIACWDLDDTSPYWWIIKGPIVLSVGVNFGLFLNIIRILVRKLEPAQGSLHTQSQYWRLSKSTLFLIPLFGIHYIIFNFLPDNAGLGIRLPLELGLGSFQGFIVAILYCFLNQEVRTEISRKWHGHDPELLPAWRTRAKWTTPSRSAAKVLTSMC
As to the kind of experiment: GHRH receptor binding, ligand competition with 125I-labeled JV-1-42 (Table 7). More on the design: Normal human pituitaries were purchased from the National Hormone and Peptide Program; tissue National Hormone and Peptide Program (A. F. Parlow, Harbor-UCLA Medical Center, Torrance, Calif.); host or cells: normal human pituitary, membrane fraction / homogenate. The note with it: JI-38 = 1.

Experimental findings from patent US9393271B2, “GHRH agonists for islet cell transplantation and function and the treatment of diabetes” (UNIVERSITY OF MIAMI, priority 2012, dated 2016) are described below.

Non-standard residues stand in square brackets, D forms with d. Residues, ends and D or L forms follow the SMILES beside them. *: point of attachment. Phe(F5) = N[C@@H](Cc1c(F)c(F)c(F)c(F)c1F)C(=O)O; Desaminotyrosyl = O=C(CCc1ccc(O)cc1)*; NMeY = CN[C@@H](Cc1ccc(O)cc1)C(=O)O; Agmatine = N=C(N)NCCCCN*; NMeA = CN[C@@H](C)C(=O)O; Nle = CCCC[C@H](N)C(=O)O; Orn = NCCC[C@H](N)C(=O)O; Abu = CC[C@H](N)C(=O)O; Aoc = NCCCCCCCC(=O)O

For `CCCC[C@H](NC(=O)[C@@H](NC(=O)[C@H](CC(=O)O)NC(=O)[C@H](CCC(N)=O)NC(=O)[C@H](CC(C)C)NC(=O)[C@H](CC(C)C)NC(=O)[C@H](CCCN)NC(=O)[C@H](CCCNC(=N)N)NC(=O)[C@H](C)NC(=O)[C@H](CO)NC(=O)[C@H](CC(C)C)NC(=O)[C@H](CCC(N)=O)NC(=O)[C@H](CC)NC(=O)[C@H](CC(C)C)NC(=O)[C@@H](NC(=O)[C@H](CCCN)NC(=O)[C@H](CCCNC(=N)N)NC(=O)[C@H](Cc1ccc(O)cc1)NC(=O)[C@H](CO)NC(=O)[C@H](CCC(N)=O)NC(=O)[C@@H](NC(=O)[C@H](Cc1ccccc1)NC(=O)[C@@H](NC(=O)[C@H](C)NC(=O)[C@H](CC(=O)O)NC(=O)[C@@H](C)NC(=O)[C@H](Cc1ccc(O)cc1)N(C)C(C)=O)[C@@H](C)CC)[C@@H](C)O)C(C)C)[C@@H](C)CC)C(=O)N[C@@H](CC(=O)O)C(=O)NCCCCNC(=N)N` [Peptide P-20351, [Ac—N—Me-Tyr^1, D-Ala^2, Gln^8, Orn^12, Abu^15, Orn^21, Nle^27, Asp^28, Agm^29]hGHRH(1-29)] (Ac-[NMeY][dA]DAIFTQSYR[Orn]VL[Abu]QLSAR[Orn]LLQDI[Nle]D-Agmatine), the “Relative affinitiy (Binding potency) vs JI-38” value (“Relative affinitiy” below) is recorded as 1.26.

For the compound `CCCC[C@H](NC(=O)[C@@H](NC(=O)[C@H](CC(=O)O)NC(=O)[C@H](CCC(N)=O)NC(=O)[C@H](CC(C)C)NC(=O)[C@H](CC(C)C)NC(=O)[C@H](CCCN)NC(=O)[C@H](CCCNC(=N)N)NC(=O)[C@H](C)NC(=O)[C@H](CO)NC(=O)[C@H](CC(C)C)NC(=O)[C@H](CCC(N)=O)NC(=O)[C@H](CC)NC(=O)[C@H](CC(C)C)NC(=O)[C@@H](NC(=O)[C@H](CCCN)NC(=O)[C@H](CCCNC(=N)N)NC(=O)[C@H](Cc1ccc(O)cc1)NC(=O)[C@H](CO)NC(=O)[C@H](C)N(C)C(=O)[C@@H](NC(=O)[C@H](Cc1ccccc1)NC(=O)[C@@H](NC(=O)[C@H](C)NC(=O)[C@H](CC(=O)O)NC(=O)[C@@H](C)NC(=O)CCc1ccc(O)cc1)[C@@H](C)CC)[C@@H](C)O)C(C)C)[C@@H](C)CC)C(=O)N[C@@H](CC(=O)O)C(=O)NCCCCNC(=N)N` [Peptide P-20357, [Dat^1, D-Ala^2, N—Me-Ala^8, Orn^12, Abu^15, Orn^21, Nle^27, Asp^28, Agm^29]hGHRH(1-29)] (Desaminotyrosyl-[dA]DAIFT[NMeA]SYR[Orn]VL[Abu]QLSAR[Orn]LLQDI[Nle]D-Agmatine), the “Relative affinitiy” value is 5.06.

For the compound `CCCC[C@H](NC(=O)[C@@H](NC(=O)[C@H](CC(=O)O)NC(=O)[C@H](CCC(N)=O)NC(=O)[C@H](CC(C)C)NC(=O)[C@H](CC(C)C)NC(=O)[C@H](CCCN)NC(=O)[C@H](CCCNC(=N)N)NC(=O)[C@H](C)NC(=O)[C@H](CO)NC(=O)[C@H](CC(C)C)NC(=O)[C@H](CCC(N)=O)NC(=O)[C@H](CC)NC(=O)[C@H](CC(C)C)NC(=O)[C@@H](NC(=O)[C@H](CCCN)NC(=O)[C@H](CCCNC(=N)N)NC(=O)[C@H](Cc1ccc(O)cc1)NC(=O)[C@H](CO)NC(=O)[C@H](CC(N)=O)NC(=O)[C@@H](NC(=O)[C@H](Cc1c(F)c(F)c(F)c(F)c1F)NC(=O)[C@@H](NC(=O)[C@H](C)NC(=O)[C@H](CC(=O)O)NC(=O)[C@@H](C)NC(=O)[C@H](Cc1ccc(O)cc1)NC)[C@@H](C)CC)[C@@H](C)O)C(C)C)[C@@H](C)CC)C(=O)N[C@@H](CC(=O)O)C(=O)NCCCCNC(=N)N` [Peptide P-20359, [N—Me-Tyr^1, D-Ala^2, Fpa5^6, Orn^12, Abu^15, Orn^21, Nle^27, Asp^28, Agm^29]hGHRH(1-29)] (H-[NMeY][dA]DAI[Phe(F5)]TNSYR[Orn]VL[Abu]QLSAR[Orn]LLQDI[Nle]D-Agmatine), the “Relative affinitiy” value was 1.43.

In the case of `CCCC[C@H](NC(=O)[C@@H](NC(=O)[C@H](CC(=O)O)NC(=O)[C@H](CCC(N)=O)NC(=O)[C@H](CC(C)C)NC(=O)[C@H](CC(C)C)NC(=O)[C@H](CCCN)NC(=O)[C@H](CCCNC(=N)N)NC(=O)[C@H](C)NC(=O)[C@H](CO)NC(=O)[C@H](CC(C)C)NC(=O)[C@H](CCC(N)=O)NC(=O)[C@H](CC)NC(=O)[C@H](CC(C)C)NC(=O)[C@@H](NC(=O)[C@H](CCCN)NC(=O)[C@H](CCCNC(=N)N)NC(=O)[C@H](Cc1ccc(O)cc1)NC(=O)[C@H](CO)NC(=O)[C@H](CCC(N)=O)NC(=O)[C@@H](NC(=O)[C@H](Cc1ccccc1)NC(=O)[C@@H](NC(=O)[C@H](C)NC(=O)[C@H](CC(=O)O)NC(=O)[C@@H](C)NC(=O)[C@H](Cc1ccc(O)cc1)NC)[C@@H](C)CC)[C@@H](C)O)C(C)C)[C@@H](C)CC)C(=O)N[C@@H](CC(=O)O)C(=O)NCCCCNC(=N)N` [Peptide P-20361, [N—Me-Tyr^1, D-Ala^2, Gln^8, Orn^12, Abu^15, Orn^21, Nle^27, Asp^28, Agm^29] hGHRH(1-29)] (H-[NMeY][dA]DAIFTQSYR[Orn]VL[Abu]QLSAR[Orn]LLQDI[Nle]D-Agmatine), the “Relative affinitiy” value is on record as 5.30.

Regarding `CCCC[C@H](NC(=O)[C@@H](NC(=O)[C@H](CC(=O)O)NC(=O)[C@H](CCC(N)=O)NC(=O)[C@H](CC(C)C)NC(=O)[C@H](CC(C)C)NC(=O)[C@H](CCCN)NC(=O)[C@H](CCCNC(=N)N)NC(=O)[C@H](C)NC(=O)[C@H](CO)NC(=O)[C@H](CC(C)C)NC(=O)[C@H](CCC(N)=O)NC(=O)[C@H](CC)NC(=O)[C@H](CC(C)C)NC(=O)[C@@H](NC(=O)[C@H](CCCN)NC(=O)[C@H](CCCNC(=N)N)NC(=O)[C@H](Cc1ccc(O)cc1)NC(=O)[C@H](CO)NC(=O)[C@H](CC(N)=O)NC(=O)[C@@H](NC(=O)[C@H](Cc1ccccc1)NC(=O)[C@@H](NC(=O)[C@H](C)NC(=O)[C@H](CC(=O)O)NC(=O)[C@@H](C)NC(=O)CCc1ccc(O)cc1)[C@@H](C)CC)[C@@H](C)O)C(C)C)[C@@H](C)CC)C(=O)N[C@@H](CC(=O)O)C(=O)N[C@@H](CCCNC(=N)N)C(=O)NCCCCCCCC(N)=O` [Peptide P-21300, [Dat^1, D-Ala^2, Orn^12, Abu^15, Orn^21, Nle^27, Asp^28, Amc^30]hGHRH(1-30)NH2] (Desaminotyrosyl-[dA]DAIFTNSYR[Orn]VL[Abu]QLSAR[Orn]LLQDI[Nle]DR[Aoc]-NH2), the “Relative affinitiy” value turned out to be 1.20.

In the case of `CCCC[C@H](NC(=O)[C@@H](NC(=O)[C@H](CC(=O)O)NC(=O)[C@H](CCC(N)=O)NC(=O)[C@H](CC(C)C)NC(=O)[C@H](CC(C)C)NC(=O)[C@H](CCCN)NC(=O)[C@H](CCCNC(=N)N)NC(=O)[C@H](C)NC(=O)[C@H](CO)NC(=O)[C@H](CC(C)C)NC(=O)[C@H](CCC(N)=O)NC(=O)[C@H](CC)NC(=O)[C@H](CC(C)C)NC(=O)[C@@H](NC(=O)[C@H](CCCN)NC(=O)[C@H](CCCNC(=N)N)NC(=O)[C@H](Cc1ccc(O)cc1)NC(=O)[C@H](CO)NC(=O)[C@H](CC(N)=O)NC(=O)[C@@H](NC(=O)[C@H](Cc1ccccc1)NC(=O)[C@@H](NC(=O)[C@H](C)NC(=O)[C@H](CC(=O)O)NC(=O)[C@H](C)NC(=O)[C@H](Cc1ccc(O)cc1)NC)[C@@H](C)CC)[C@@H](C)O)C(C)C)[C@@H](C)CC)C(=O)N[C@@H](CC(=O)O)C(=O)N[C@@H](CCCNC(=N)N)C(=O)NCCCCCCCC(N)=O` [Peptide P-21301, [N—Me-Tyr^1, Orn^12, Abu^15, Orn^21, Nle^27, Asp^28, Amc^30]hGHRH(1-30)NH2] (H-[NMeY]ADAIFTNSYR[Orn]VL[Abu]QLSAR[Orn]LLQDI[Nle]DR[Aoc]-NH2), the “Relative affinitiy” value turned out to be 1.45.

Turning to `CCCC[C@H](NC(=O)[C@@H](NC(=O)[C@H](CC(=O)O)NC(=O)[C@H](CCC(N)=O)NC(=O)[C@H](CC(C)C)NC(=O)[C@H](CC(C)C)NC(=O)[C@H](CCCN)NC(=O)[C@H](CCCNC(=N)N)NC(=O)[C@H](C)NC(=O)[C@H](CO)NC(=O)[C@H](CC(C)C)NC(=O)[C@H](CCC(N)=O)NC(=O)[C@H](CC)NC(=O)[C@H](CC(C)C)NC(=O)[C@@H](NC(=O)[C@H](CCCN)NC(=O)[C@H](CCCNC(=N)N)NC(=O)[C@H](Cc1ccc(O)cc1)NC(=O)[C@H](CO)NC(=O)[C@H](CC(N)=O)NC(=O)[C@@H](NC(=O)[C@H](Cc1ccccc1)NC(=O)[C@@H](NC(=O)[C@H](C)NC(=O)[C@H](CC(=O)O)NC(=O)[C@@H](C)NC(=O)[C@H](Cc1ccc(O)cc1)NC)[C@@H](C)CC)[C@@H](C)O)C(C)C)[C@@H](C)CC)C(=O)N[C@@H](CC(=O)O)C(=O)N[C@@H](CCCNC(=N)N)C(=O)NCCCCCCCC(N)=O` [Peptide P-21303, [N—Me-Tyr^1, D-Ala^2, Orn^12, Abu^15, Orn^21, Nle^27, Asp^28, Amc^30]hGHRH(1-30)NH2] (H-[NMeY][dA]DAIFTNSYR[Orn]VL[Abu]QLSAR[Orn]LLQDI[Nle]DR[Aoc]-NH2), the “Relative affinitiy” value is reported as 2.32.
